# In patent publication US4257941A, “Polycyclic nitrogen-containing compounds” (BASF Aktiengesellschaft, priority 1976, dated 1981):
# Like-named read-outs stand apart in the source and are kept apart here.
# Tests used:
# Format in all cases: in vivo
# tomatoes = experiment: Action on tomatoes (Example 22); details: leaf; for Plant height: 14 days; for Plant height relative: control 100
# Protocol: Tomatoes were grown in the greenhouse in glass dishes 11.5 cm in diameter containing a peat substrate which was provided with an adequate supply of nutrients. The active ingredients were sprayed onto the leaves in conventional manner at a plant height of 9 to 12 cm.
# Alopecurus myosuroides = experiment: Herbicidal action (Example 25); details: for pest or weed control at 2000 g/ha / pest or weed control at 4000 g/ha / pest or weed control at 8000 g/ha: Alopecurus myosuroides, read-out: percentage damage; for pest or weed control at 2000 g/ha: 2.0 kg/ha; for pest or weed control at 8000 g/ha: 8.0 kg/ha
# Protocol: (§1) Paraffined paper cups having a volume of 170 cm^3 were filled with a sandy loam, and the seeds of the test plants sown therein, separated by species. (The species are also listed below.)
# (§2) In the first group, treatment was effected immediately after sowing and before germination of the seeds (preemergence treatment=soil treatment). Shallow sown seeds not completely covered with soil came into contact with the active ingredients. In the second group, the plants were treated postemergence (=leaf treatment) at a growth height of from 2 to 8 cm, depending on the rate of growth and shape of the species concerned. The compounds were suspended or emulsified in water and applied with the aid of fine nozzles. The soil and plants were thoroughly sprinkler irrigated for the duration of the experiment. The cups were placed in the greenhouse and kept in the temperature range 12°-25° C. or 18°-35° C., depending on the temperature requirements of the various species. After 2 to 6 weeks the action was assessed visually on a 0 to 100 scale, 0 denoting no damage and 100 denoting plants not germinated or completely destroyed.
# Datura stramonium = experiment: Herbicidal action (Example 25); details: postemergence
# Protocol: as §1, §2
# Digitaria sanguinalis = experiment: Herbicidal action (Example 25); details: postemergence
# Protocol: as §1, §2
# Eleusine indica = experiment: Herbicidal action (Example 25); details: postemergence
# Protocol: as §1, §2
# [1] = post-emergence, postemergence, 4.0 kg/ha
# [2] = pre-emergence, preemergence, 4.0 kg/ha
smiles,measurement,setting,value
Clc1ccc(N2N=NC3C4CC(C5N=NC45)C32)cc1 (stereo not drawn) [drawing 402],Plant height,tomatoes; 1.5 kg/ha,24.3 cm
same,Plant height relative,tomatoes; 1.5 kg/ha,89.3
same,Plant height,tomatoes; 3.0 kg/ha,20.3 cm
same,Plant height relative,tomatoes; 3.0 kg/ha,74.6
same,Plant height,tomatoes; 6.0 kg/ha,14.0 cm
same,Plant height relative,tomatoes; 6.0 kg/ha,51.5
Brc1ccc(N2N=NC3C4CC(C5N=NC45)C32)cc1 (stereo not drawn) [drawing 403],Plant height,tomatoes; 1.5 kg/ha,25.0 cm
same,Plant height relative,tomatoes; 1.5 kg/ha,91.9
same,Plant height,tomatoes; 3.0 kg/ha,22.7 cm
same,Plant height relative,tomatoes; 3.0 kg/ha,83.5
same,Plant height,tomatoes; 6.0 kg/ha,15.3 cm
same,Plant height relative,tomatoes; 6.0 kg/ha,56.2
CC(C)OC(=O)Nc1cccc(Cl)c1 [drawing 423],pest or weed control at 2000 g/ha,"Alopecurus myosuroides; post-emergence, postemergence",25%
same,pest or weed control at 4000 g/ha,Alopecurus myosuroides; [1],25%
same,pest or weed control at 8000 g/ha,"Alopecurus myosuroides; post-emergence, postemergence",30%
same,pest or weed control at 2000 g/ha,"Alopecurus myosuroides; pre-emergence, preemergence",95%
same,pest or weed control at 4000 g/ha,Alopecurus myosuroides; [2],95%
same,pest or weed control at 8000 g/ha,"Alopecurus myosuroides; pre-emergence, preemergence",98%
same,percentage damage,Datura stramonium; 2.0 kg/ha,30 percentage damage
same,percentage damage,Datura stramonium; 4.0 kg/ha,40 percentage damage
same,percentage damage,Datura stramonium; 8.0 kg/ha,60 percentage damage
same,percentage damage,Digitaria sanguinalis; 2.0 kg/ha,80 percentage damage
same,percentage damage,Digitaria sanguinalis; 4.0 kg/ha,80 percentage damage
same,percentage damage,Digitaria sanguinalis; 8.0 kg/ha,90 percentage damage
same,percentage damage,Eleusine indica; 2.0 kg/ha,50 percentage damage
same,percentage damage,Eleusine indica; 4.0 kg/ha,50 percentage damage
same,percentage damage,Eleusine indica; 8.0 kg/ha,50 percentage damage
CN(C)C(=O)Nc1ccc(Oc2ccccc2)cc1 [drawing 424],pest or weed control at 2000 g/ha,"Alopecurus myosuroides; post-emergence, postemergence",15%
same,pest or weed control at 4000 g/ha,Alopecurus myosuroides; [1],22%
same,pest or weed control at 8000 g/ha,"Alopecurus myosuroides; post-emergence, postemergence",38%
same,pest or weed control at 2000 g/ha,"Alopecurus myosuroides; pre-emergence, preemergence",30%
same,pest or weed control at 4000 g/ha,Alopecurus myosuroides; [2],25%
same,pest or weed control at 8000 g/ha,"Alopecurus myosuroides; pre-emergence, preemergence",25%
same,percentage damage,Datura stramonium; 2.0 kg/ha,95 percentage damage
same,percentage damage,Datura stramonium; 4.0 kg/ha,95 percentage damage
same,percentage damage,Datura stramonium; 8.0 kg/ha,100 percentage damage
same,percentage damage,Digitaria sanguinalis; 2.0 kg/ha,50 percentage damage
same,percentage damage,Digitaria sanguinalis; 4.0 kg/ha,70 percentage damage
same,percentage damage,Digitaria sanguinalis; 8.0 kg/ha,90 percentage damage
same,percentage damage,Eleusine indica; 2.0 kg/ha,40 percentage damage
same,percentage damage,Eleusine indica; 4.0 kg/ha,50 percentage damage
same,percentage damage,Eleusine indica; 8.0 kg/ha,50 percentage damage
C=CCN(CC=C)C(=O)CCl [drawing 425],pest or weed control at 2000 g/ha,"Alopecurus myosuroides; post-emergence, postemergence",28%
same,pest or weed control at 4000 g/ha,Alopecurus myosuroides; [1],38%
same,pest or weed control at 8000 g/ha,"Alopecurus myosuroides; post-emergence, postemergence",35%
same,pest or weed control at 2000 g/ha,"Alopecurus myosuroides; pre-emergence, preemergence",68%
same,pest or weed control at 4000 g/ha,Alopecurus myosuroides; [2],85%
same,pest or weed control at 8000 g/ha,"Alopecurus myosuroides; pre-emergence, preemergence",98%
same,percentage damage,Datura stramonium; 2.0 kg/ha,10 percentage damage
same,percentage damage,Datura stramonium; 4.0 kg/ha,20 percentage damage
same,percentage damage,Datura stramonium; 8.0 kg/ha,60 percentage damage
c1ccc(N2N=NC3C4CC(C5N=NC45)C32)cc1 (stereo not drawn) [drawing 429],pest or weed control at 2000 g/ha,"Alopecurus myosuroides; post-emergence, postemergence",15%
same,pest or weed control at 4000 g/ha,Alopecurus myosuroides; [1],38%
same,pest or weed control at 8000 g/ha,"Alopecurus myosuroides; post-emergence, postemergence",45%
same,pest or weed control at 2000 g/ha,"Alopecurus myosuroides; pre-emergence, preemergence",70%
same,pest or weed control at 8000 g/ha,"Alopecurus myosuroides; pre-emergence, preemergence",90%
same,percentage damage,"Alopecurus myosuroides; preemergence, 4.0 kg/ha",75 percentage damage
same,percentage damage,Datura stramonium; 2.0 kg/ha,60 percentage damage
same,percentage damage,Datura stramonium; 4.0 kg/ha,95 percentage damage
same,percentage damage,Datura stramonium; 8.0 kg/ha,100 percentage damage
same,percentage damage,Digitaria sanguinalis; 2.0 kg/ha,60 percentage damage
same,percentage damage,Digitaria sanguinalis; 4.0 kg/ha,70 percentage damage
same,percentage damage,Digitaria sanguinalis; 8.0 kg/ha,80 percentage damage
same,percentage damage,Eleusine indica; 2.0 kg/ha,90 percentage damage
same,percentage damage,Eleusine indica; 4.0 kg/ha,90 percentage damage
same,percentage damage,Eleusine indica; 8.0 kg/ha,90 percentage damage
c1csc(N2N=NC3C4CC(C5N=NC45)C32)n1 (stereo not drawn) [drawing 430],pest or weed control at 2000 g/ha,"Alopecurus myosuroides; post-emergence, postemergence",32%
same,pest or weed control at 4000 g/ha,Alopecurus myosuroides; [1],40%
same,pest or weed control at 8000 g/ha,"Alopecurus myosuroides; post-emergence, postemergence",50%
same,pest or weed control at 2000 g/ha,"Alopecurus myosuroides; pre-emergence, preemergence",70%
same,pest or weed control at 4000 g/ha,Alopecurus myosuroides; [2],88%
same,pest or weed control at 8000 g/ha,"Alopecurus myosuroides; pre-emergence, preemergence",100%
same,percentage damage,Datura stramonium; 2.0 kg/ha,50 percentage damage
same,percentage damage,Datura stramonium; 4.0 kg/ha,60 percentage damage
same,percentage damage,Datura stramonium; 8.0 kg/ha,65 percentage damage
same,percentage damage,Digitaria sanguinalis; 2.0 kg/ha,60 percentage damage
same,percentage damage,Digitaria sanguinalis; 4.0 kg/ha,60 percentage damage
same,percentage damage,Digitaria sanguinalis; 8.0 kg/ha,80 percentage damage
same,percentage damage,Eleusine indica; 2.0 kg/ha,60 percentage damage
same,percentage damage,Eleusine indica; 4.0 kg/ha,60 percentage damage
same,percentage damage,Eleusine indica; 8.0 kg/ha,70 percentage damage
